Measured values: patent publication US6642036B2, “Sinapoylglucose:malate sinapoyltransferase form malate conjugates from benozic acid glucosides” (E. I. Du Pont de Nemours and Company, priority 2000, dated 2003)
Read-outs that look alike come from different tables or passages of the source.

How the values were obtained:
[1] = target: T1, recombinantly produced, refolded SMT protein (Arabidopsis thaliana, UniProt Q8RUW5, A20T/S19M); type: biochemical; settings: for acceptance as acyl acceptor with sinapoylglucose or PHBA 1-O-acylglucoside: 200 ng SMT, 500 μM glucose ester, 400 mM alcohol, pH 6.2, 30° C. for 16 h
T1 construct: consisting primarily of recombinant mature Arabidopsis SMT and some minor protein contaminants; initiator Met (start codon added in place of the signal peptide) (N); made in house
Procedure: Sinapoyl glucose was purified from the sng1 mutant of Arabidopsis as described by Lorenzen et al. (Plant Physiology 112:1625-1630 (1996)). The SMT assay contained 12.5 μL of 0.5 mM sinapoyl glucose in 100 mM potassium phosphate buffer (pH 7.5), 5 μL of 100 mM potassium phosphate buffer (pH 6.0), 5 μL of 1 M malic acid in potassium phosphate buffer (pH 6.0) and 5 μL of E. coli extract corresponding to 100 μg of protein. Assays were incubated for 14 h at 30° C., stopped by addition of 30 μL of methanol and stored at −70° C. before analysis by HPLC. Enzyme assays were analyzed by HPLC on a Nova-Pak® Pak® C18 column (60 Å pore size, […] particle size) using a gradient from 6% acetonitrile, 1.5% phosphoric acid to 48% acetonitrile, followed by 1.5% phosphoric acid and UV detection at 335 nm.
Approximately 250 ng of recombinantly produced, refolded SMT protein was incubated with 200 mM malate, 0.1 mM PHBA 1-O-acyl glucoside in a 25 μL reaction in 100 mM potassium phosphate buffer (pH 6.2) for 12 h at 30° C. Reaction products were separated by HPLC as described in the General Methods. […] The compound was analyzed by LC-MS as described in the General Methods.
The activity of the SMT enzyme was determined using sinapoyl glucose and L-lactate as follows. 1 μg of partially purified recombinant SMT protein was incubated with 500 μM sinapoyl glucose in 100 mM potassium phosphate buffer (pH 6.2) in the absence or presence of 200 mM L-lactate. Enzyme reactions were incubated at 30° C. for 12 h. Reaction products were analyzed by HPLC as described in the General Methods.
Activity of the SMT enzyme was determined using sinapoylglucose or PHBA 1-O-acylglucoside and methanol, ethanol and isopropanol. Briefly, 200 ng of partially purified recombinantly produced SMT protein was incubated with 500 μM of the glucose ester of sinapic acid or PHBA in 100 mM potassium phosphate buffer (pH 6.2) in the absence or presence of 400 mM of the respective alcohols in 100 μL enzyme reactions. Enzyme reactions were incubated at 30° C. for 16 h. All reaction products were analyzed by HPLC as described in Example 1.

[2] = target: SMT (sinapoylglucose:malate sinapoyltransferase) (Arabidopsis thaliana, UniProt Q8RUW5, A20T/S19M)
Procedure: Sinapoyl glucose was purified from the sng1 mutant of Arabidopsis as described by Lorenzen et al. (Plant Physiology 112:1625-1630 (1996)). […] Assays were incubated for 14 h at 30° C., stopped by addition of 30 μL of methanol and stored at −70° C. before analysis by HPLC. Enzyme assays were analyzed by HPLC on a Nova-Pak® Pak® C18 column (60 Å pore size, […] particle size) using a gradient from 6% acetonitrile, 1.5% phosphoric acid to 48% acetonitrile, followed by 1.5% phosphoric acid and UV detection at 335 nm.

O=C(O)CC(O)C(=O)O = assay: purified protein, by the assay type; settings: other: 30° C., 500 μM sinapoyl glucose, 100 mM potassium phosphate buffer (pH 6.8), 50 ng partially purified SMT, Hofstee plot
[3] = target: T2, sinapoyl glucose and L-malate (SMT reaction) (Arabidopsis thaliana, UniProt Q8RUW5, A20T/S19M); assay: Turnover number of purified recombinant SMT folded from inclusion bodies; type: biochemical; settings: 30° C., 100 mM potassium phosphate buffer (pH 6.2), 500 μM sinapoyl glucose, 200 mM L-malate
T2 construct: consisting primarily of recombinant mature Arabidopsis SMT and some minor protein contaminants; initiator Met (start codon added in place of the signal peptide) (N); made in house
Procedure: As judged by SDS-PAGE and Coomassie-blue staining, the folded recombinant protein was at least 80% pure and the final yield of active SMT from the 100 mL folding reaction was ˜6 μg, corresponding to ˜0.52% of the original inclusion body material. The turnover number for purified recombinant SMT folded from inclusion bodies was ˜18/sec at 30° C., which compares favorably to the 11.5/sec value that was previously reported for the authentic protein purified from radish (Graewe et al., Planta 187:236-241 (1992)). For this determination the 25 μL enzyme reaction contained 100 mM potassium phosphate buffer (pH 6.2), 500 μM sinapoyl glucose and 200 mM L-malate.

## C[C@H](O)C(=O)O [L-lactate]
[1]; 1 μg SMT, 500 μM sinapoyl glucose, 200 mM L-lactate, pH 6.2, 30° C. for 12 h, product m/z agrees with sinapoyl lactate
  acceptance as acyl acceptor with sinapoyl glucose: a new compound that absorbs at 335 nm is produced

## O=C(O[C@@H]1O[C@H](CO)[C@@H](O)[C@H](O)[C@H]1O)c1ccc(O)cc1 [PHBA 1-O-acyl glucoside]
[2]; 30° C., 200 mM malate, 500 ng partially purified SMT, y-intercept of regression curve
  Vmax of SMT for PHBA 1-O-acyl glucoside: 0.2482 μmol min^−1 mg^−1 protein
[2]; read-out: Km of SMT for PHBA 1-O-acyl glucoside, 30° C., 200 mM malate, 100 mM potassium phosphate buffer (pH 6.8), 500 ng partially purified SMT, PHBA malate synthesis, Hofstee plot
  Km: ~354 µM
[1]; 250 ng SMT, 200 mM malate, 0.1 mM PHBA 1-O-acyl glucoside, pH 6.2, 12 h at 30° C., product m/z agrees with PHBA malate
  conversion by SMT in the presence of malate: converted to a new compound

## CCO [ethanol]
[1]
  acceptance as acyl acceptor with sinapoylglucose or PHBA 1-O-acylglucoside: production of methyl, ethyl and isopropyl esters of sinapic acid and PHBA

## CC(C)O [isopropanol]
[1]
  acceptance as acyl acceptor with sinapoylglucose or PHBA 1-O-acylglucoside: production of methyl, ethyl and isopropyl esters of sinapic acid and PHBA

## CO [methanol]
[1]
  acceptance as acyl acceptor with sinapoylglucose or PHBA 1-O-acylglucoside: production of methyl, ethyl and isopropyl esters of sinapic acid and PHBA

## COc1cc(/C=C/C(=O)O[C@@H]2O[C@H](CO)[C@@H](O)[C@H](O)[C@H]2O)cc(OC)c1O [sinapoyl glucose]
[2]; 30° C., 200 mM malate, 50 ng partially purified SMT, y-intercept of regression curve
  Vmax of SMT for sinapoyl glucose: 21.315 μmol min^−1 mg^−1 protein
[2]; read-out: Km of SMT for sinapoyl glucose, pH 6.8
  Km: ~541 µM

## SMT (sinapoylglucose:malate sinapoyltransferase) (Arabidopsis thaliana; A20T/S19M)
O=C(O)CC(O)C(=O)O
  Km: 42000 µM

B1: purified recombinant SMT: recombinant mature Arabidopsis sinapoylglucose:malate sinapoyltransferase (SEQ ID NO:7) folded from E. coli inclusion bodies (protein)
chain: MTSIVKFLPGFEGPLPFELETGYIGIGEDENVQFFYYFIKSENNPKEDPLLIWLNGGPGCSCLGGIIFENGPVGLKFEVFNGSAPSLFSTTYSWTKMANIIFLDQPVGSGFSYSKTPIDKTGDISEVKRTHEFLQKWLSRHPQYFSNPLYVVGDSYSGMIVPALVQEISQGNYICCEPPINLQGYMLGNPVTYMDFEQNFRIPYAYGMGLISDEIYEPMKRICNGNYYNVDPSNTQCLKLTEEYHKCTAKINIHHILTPDCDVTNVTSPDCYYYPYHLIECWANDESVREALHIEKGSKGKWARCNRTIPYNHDIVSSIPYHMNNSISGYRSLIYSGDHDIAVPFLATQAWIRSLNYSPIHNWRPWMINNQIAGYTRAYSNKMTFATIKGGGHTAEYRPNETFIMFQRWISGQPL
[3]
  turnover number: ~18 s⁻¹
